Data set [1] concerns WNV. Kind of data set: virus yield reduction assay, WNV. The class given is cell-based, West Nile virus. To be noted: for EC50: West Nile virus, Vero, read-out: WNV EC50. The procedure:
(§1) This example describes an assay used to evaluate inhibitor antiviral activity. Inhibitor screening, virus yield reduction, and cytotoxicity assays all employed Vero cells and media containing 2% FCS. Compound libraries were assayed for WNV antiviral activity by screening for protection of infected Vero cells from WNV cytopathic effects (CPE). To do so, 10^4 Vero cells in 96 well plate wells were pretreated with a final concentration of 10 μg/mL drug in a total volume of 1 μL DMSO, infected with WNV at a multiplicity of infection (MOI) of 0.2, and screened for protection from CPE for 3-5 d post-infection (PI). Virus yield reduction assays were modified from previous protocols (Hirsch, A., Medigeshi, G., Meyers, H., DeFilippis, V., Fruh, K., Briese, T., Lipkin, W. I., and Nelson, J. (2005). The Src family kinase c-Yes is required for maturation of West Nile virus particles. J. Virol. 79, 11943-11951). Briefly, 10^4 Vero cells in 96 well plate wells were treated with compound dilutions in 1 μL DMSO, and infected with WNV at an MOI of 1-3. At 20-24 h PI, virus-containing media samples were titered by limiting dilution on fresh Vero cells. After 5 d, media were removed, and surviving cells were stained with 0.0375% crystal violet in ethanol. For cytotoxicity assays, 10^4 Vero cells per 96 well plate well were treated with compound dilutions, grown for 48 h, and subjected to colorimetric assays for dehydrogenase levels in metabolically active cells using MTS (3-[4,5-dimethylthiazol-2-yl)-5-[3-carboxymethyoxy phenyl]-2-[4-sulfophenyl]-2H-tetrazolium]; Promega) substrate. MTS cytotoxicity assay results were confirmed microscopically by scoring for Trypan Blue (0.2%) exclusion.
(§2) Several antiviral sultams were evaluated in using these methods. The results, including CC50 and EC50 values for WNV and JEV, were determined by MTS cytotoxicity assays and virus yield reduction assays and are recorded in Table 2.

Data set [2] deals with JEV. Description: virus yield reduction assay, JEV. The conditions noted are these: Japanese encephalitis virus, Vero, read-out: JEV EC50. Type of data set: cell-based. As for the experimental part:
as §1, §2

A short description of data set [3]: MTS cytotoxicity assay (48 h). The conditions noted are these: African green monkey; MTS, Vero cells, 48 h. Type of data set: cell-based. As for the experimental part: as §1, §2
The subject of data set [4] is Vero cells. Kind of data set: MTS cytotoxicity assay (48 h). Type of data set: cell-based. To be noted: highest drug concentrations employed. As for the experimental part:
as §1, §2

Data set [5] deals with WNV E. Description: WNV E protein expression by immunofluorescence. To be noted: 10 μg/mL, Vero cells, MOI 3, 24 h PI. Type of data set: cell-based, West Nile virus. As for the experimental part:
E protein expression was assayed by immunofluorescence and immunoblotting. Immunofluorescent and immunoblot detection of WNV E employed a commercially available anti-E monoclonal antibody (Chemicon Mab 8150). For immunofluorescence, Vero cells in DMEM, plus penicillin, streptomycin, and 2% FCS were mock-treated with DMSO, or treated with 10 μg/mL of inhibitor compound in DMSO, and infected with WNV at an MOI of 3. At 24 h PI, cells were processed for immunofluorescent detection of WNV E using a standard protocol at room temperature (Arvidson, B., Seeds, J., Webb, M., Finlay, L., and Barklis, E. (2003). Analysis of the retrovirus capsid interdomain linker region. Virology 308, 166-177). Briefly, washed cells were fixed 20 min in 3.7% formaldehyde in phosphate-buffered saline (PBS; 9.5 mM sodium potassium phosphate [pH 7.4], 137 mM NaCl, 2.7 mM KCl), washed, permeabilized 10 min in 0.2% Triton X-100 in PBS, washed, incubated 1 h with primary antibody diluted in DMEM plus 10% heat inactivated FCS (DMEM+FCS), washed, incubated 1 h with 1:1000 diluted Alexafluor594-conjugated goat anti-mouse secondary antibody (Molecular Probes; Invitrogen) in DMEM+FCS, washed, and mounted with PBS in 50% glycerol. Images were collected electronically on a Zeiss fluorescence microscope.
A handful of E protein-positive cells was observed over the faint background staining of the majority of cells.

For data set [6], the system named is WNV E. Kind of data set: WNV E protein expression by immunoblot. Type of data set: cell-based, West Nile virus. To be noted: 5 μg/mL, Vero cells, MOI 5, 18 h PI. As for the experimental part:
For immunoblot detection of WNV E Vero cells on […] in 1 mL media were mock-treated with 5 μL DMSO or treated with 5 μL 1 mg/mL inhibitor compound in DMSO (final concentration 5 μg/mL inhibitor compound), and infected with WNV at an MOI of 5. At 18 h PI, media were removed, cells were collected in IPB (10 mM Tris-hydrochloride [pH 7.5], 150 mM NaCl, 1 mM ethylenediaminetetraacetic acid (EDTA), 0.1% sodium dodecyl sulfate [SDS], 0.5% sodium deoxycholate, 1% Triton X-100, 0.02% sodium azide), mixed with 1 volume of 2 x sample buffer (12.5 mM Tris-hydrochloride [pH 6.8], 2% SDS, 20% glycerol, 0.25% bromphenol blue) plus 0.1 volume of β-mercaptoethanol (β-Me). Samples were frozen at −20° C., heated 5 min to 90° C. and subjected to SDS-polyacrylamide gel electrophoresis (SDS-PAGE). After electrophoresis and electroblotting onto nitrocellulose filters, WNV E proteins were detected using a dilution of Mab 8150 as the primary antibody, an alkaline phosphatase-conjugated goat anti-mouse IgG secondary antibody (Promega), and a BCIP (5-bromo-4-chloro-3-indolyl phosphate) plus NBT (nitroblue tetrazolium)-mediated color reaction for visualization.
Immunoblotting was performed using a similar infection regime as in the immunofluorescence protocol. […] The WNV envelope protein was detected as a band at approximately 55 kDa in cells treated with DMSO, or with ineffective candidate inhibitors.

Data set [7] deals with WNV NY99. Description: RT real-time PCR quantitation of WNV RNA. The class given is cell-based, West Nile virus. To be noted: 5 μg/ml, MOI 5, 18 h PI. As for the experimental part: Cells were DMSO mock-treated or treated with 5 μg/ml TYT-1, and then mock-infected or infected with WNV NY99 at an MOI of 5. At 18 h PI, RNAs were isolated from cells and subjected to reverse transcription (RT) real-time PCR quantitation of WNV RNA following the protocol of Briese et al. (Briese, T., Glass, W., and Lipkin, W. I. (2000). Detection of West Nile virus sequences in cerebrospinal fluid. Lancet 355, 1614-1615). […] Thus, inhibition of WNV NY99 replication by TYT-1 is accompanied by a reduction in viral protein and viral RNA expression levels.

Data set [8] deals with Vero cells. Description: MTS toxicity screening assay (3 d). To be noted: 10 μg/ml, subconfluent Vero cells. Type of data set: cell-based. The text has this:
TYT-1 was screened for toxicities using a colorimetric cell proliferation assay which employs MTS substrate to measure dehydrogenase activity in metabolically active cells (Barltrop, J. et al. (1991) 5-(3-carboxymethoxyphenyl)-2-(4,5-dimethylthiazoly)-3-(4-sulfophenyl)tetrazolium, inner salt (MTS) and related analogs of 3-(4,5-dimethyl thiazolyl)-2,5-diphenyltetrazolium bromide (mTT) reducing to purple water-soluble formazans as cell-viability indicators. Bioorg. & Med. Chem. Lett. 1, 611).
In this assay, subconfluent Vero cells were untreated, or treated 3 d with 10 μg/ml compound, and then subjected to MTS dehydrogenase assays, in which 490 nm absorbance values are proportional to cell viability signals. Results were plotted as the percentage of all treated compounds versus the percentage of the assay signal for untreated samples. Thus, nontoxic compounds give a signal approximately 100% that of the untreated signal.

Data set [9] concerns West Nile virus (WNV; strain NY99). Kind of data set: protection of mice from WNV lethality. The class given is in vivo, C57BL/6N mice. To be noted: 400 pfu WNV s.c. The procedure:
This example describes the protective effect exerted by examples of the disclosed compounds against challenge with flaviviruses. […] With reference to FIG. 2A, on day 0, two groups of five C57BL/6N mice each were injected subcutaneously with 400 plaque forming units (pfu) of West Nile virus (WNV; strain NY99). Four hours prior to virus infection, and at two and four days post-infection (PI), one set of mice was injected i.p. with 0.02 ml DMSO per mouse (mock), while the other set was injected with 10 mg/kg TYT-1 in 0.02 ml DMSO. Survival was tracked for 21 days PI, and results are plotted as overall percentage survival for each group, versus the number of days PI. […] With reference to FIG. 2B, two groups of C57BL/6N mice were infected on day 0 with WNV as described above. Prior to infection, the 15 mice in the mock group were injected subcutaneously with 0.025 ml of DMSO, while the 10 mice in the experimental group were injected with 10 mg/kg TYT-1 in DMSO. Mice subsequently were injected i.p. with DMSO or TYT-1 at days 2, 4, 6, 8; and survival was tracked as above. […] The combined results of these two trial yielded a survival rate of 6/20 for mock treated mice and 11/15 for TYT-1 treated mice.

Data set [10] has as its system WNV. Kind of data set: protection of infected Vero cells from WNV cytopathic effects. Type of data set: cell-based, West Nile virus. To be noted: WNV 0.2 MOI. The procedure:
as §1, with “For cytotoxicity assays, 10^4 Vero cells per 96 well plate well were treated with compound dilutions, grown for 48 h, and subjected to colorimetric assays for dehydrogenase levels in metabolically active cells using MTS (3-[4,5-dimethylthiazol-2-yl)-5-[3-carboxymethyoxy phenyl]-2-[4-sulfophenyl]-2H-tetrazolium]; Promega) substrate. MTS cytotoxicity assay results were confirmed microscopically by scoring for Trypan Blue (0.2%) exclusion.” left out

Data on 6 molecules can be found in patent US20110288136A1, “FLAVIVIRUS INHIBITION BY SULTAMS AND RELATED COMPOUNDS” (Oregon Health & Science University, priority 2006, published 2011).

Values joined by “and” are separate entries in the source; they are usually repeats but may differ in a detail not shown here. Identical values can stand only once. Bounds are passed on as bounds.

Regarding `O=S1(=O)CS/C(=N\C(=S)N(c2ccccc2)c2ccccc2)N1c1ccccc1` [TYT-1, N′-(1,1-dioxido-2-phenyl-1,4,2-dithiazolidin-3-ylidene)-N,N-diphenylthiourea], in data set [1] (1 μg/ml), the “reduction of viral titers” value is “at least 100 fold”. Also, the EC50 in data set [1] stood at 0.7 µM; in data set [2] it was 7 µM. Also, the “reduction of WNV titers” value in [1] (repeated tests) is 100- to 10,000 fold and 100-10,000 fold. Further, the CC50 at 48 h in data set [3] is more than 70 µM. Further, in [4], the 50% cytotoxicity entry is on record as “not obtained”. The “cells expressing high levels of WNV E (immunofluorescence)” value in [5] is recorded as “very few cells”. In data set [6], the “E protein signal (immunoblot)” value is listed as “essentially no E protein signal”. Besides, the “WNV RNAs per cell” value in data set [7] came out at 27 copies per cell. Further, the MTS signal in [8] is given as 136 % of untreated levels. Further, the “animals succumbed at 21 days” value in data set [9] (10 mg/kg i.p. 4 h before infection and days 2, 4 PI, FIG. 2A) is “two out of five”. Also, in data set [9] (10 mg/kg, 21 days PI), the “survival rate, combined results of two trials” value was 11/15.
`CC(C)N(C(=S)/N=C1\SC(C)S(=O)(=O)N1C)C(C)C` (stereo not shown) [TYT-2, (2,5-dimethyl-1,1-dioxido-1,4,2-dithiazolidin-3-ylidene)bis(1-methylethyl)thiourea]: the EC50 in [1] and in [2] was 30 µM each time. In data set [3], this molecule displayed a CC50 at 48 h of 90 µM.
With `CC(C)N(C(=S)/N=C1\SCS(=O)(=O)N1Cc1ccccc1)C(C)C` [TYT-3, [1,1-dioxido-2-(phenylmethyl)-1,4,2-dithiazolidin-3-ylidene]bis(1-methylethyl)-thiourea], the figures for the EC50 in data set [1] and in [2] were 80 µM and 8 µM, respectively. In data set [3], this molecule showed a CC50 at 48 h of more than 80 µM. Besides, the 50% cytotoxicity result in data set [4] is reported as “not obtained”.
Take `O=S1(=O)CS/C(=N\C(=S)N(Cc2ccccc2)Cc2ccccc2)N1c1ccccc1` [TYT-4, (1,1-dioxido-2-phenyl-1,4,2-dithiazolidin-3-ylidene)-bis(phenylmethyl)-thiourea]: the EC50 in [1] was found to be 22 µM; in data set [2] it was 65 µM. The midpoint of cytotoxicity in data set [3], the CC50 at 48 h, lay at 65 µM.
As to `NC(=O)c1ncn([C@@H]2O[C@H](CO)[C@@H](O)[C@H]2O)n1` [ribavirin, reference compound], in data set [1] (100 μM), the “reduction of WNV titers” value amounted to 10 fold. The “protection of cells from WNV challenge” value in [10] (<100 μM) is “failed to protect cells”.
For the molecule interferon alpha, in data set [10] (1000 IU/ml), the “protection of cells from WNV challenge” value is recorded as “failed to protect cells”.
